Measured values as given in PubChem BioAssay (NCI).
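Method: 48-hour compound exposure of cells in 96-well plates, five concentrations, linear interpolation of endpoints. The concentration for full growth arrest is given as TGI.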

Key:
Assay in all cases: NCI-60 cell line screen, 48 h
[1] = test system: DLD-1 colon
[2] = test system: DMS 114 small cell lung
[3] = test system: EKVX NSCLC
[4] = test system: LXFL 529 NSCLC
[5] = test system: M19-MEL melanoma
[6] = test system: NCI-H23 lung
[7] = test system: SF-268 CNS
[8] = test system: SR leukemia
[9] = test system: UACC-62 melanoma
[10] = test system: DU-145 prostate
[11] = test system: KM12 colon
[12] = test system: MCF7 breast

S=c1nc(COc2ccc(Cl)cc2Cl)[nH][nH]1
TGI [1]: > 100 µM
TGI [2]: > 100 µM
TGI [3]: > 100 µM
TGI [4]: > 100 µM
TGI [5]: > 100 µM
TGI [6]: > 100 µM
TGI [7]: > 100 µM
TGI [8]: > 100 µM
TGI [9]: > 100 µM

O=[N+]([O-])c1ccc(C2CC(c3ccccc3Cl)=Nc3ccccc3S2=O)cc1 (stereo not drawn)
TGI [1]: 4.1 µM
TGI [2]: 4.36 µM
TGI [10]: 34.1 µM
TGI [3]: 35.4 µM
TGI [11]: 9.97 µM
TGI [4]: 3.54 µM
TGI [5]: 6.89 µM
TGI [12]: 7.92 µM
TGI [6]: 11.7 µM
TGI [7]: 30.5 µM
TGI [8]: 6.64 µM
TGI [9]: 6.73 µM

N#CC1CCCCOCCOCCOCCOCCOCCCCCC1=O (stereo not drawn)
TGI [1]: > 100 µM
TGI [2]: > 100 µM
TGI [3]: > 100 µM
TGI [11]: > 100 µM
TGI [4]: > 100 µM
TGI [5]: > 100 µM
TGI [6]: > 100 µM
TGI [7]: > 100 µM
TGI [8]: > 100 µM
TGI [9]: > 100 µM

O=C1C2=C(c3ccccc31)C(c1ccccc1)N1C(=O)CSC1=N2 (stereo not drawn)
TGI [1]: > 100 µM
TGI [2]: > 100 µM
TGI [10]: > 100 µM
TGI [3]: > 100 µM
TGI [11]: > 100 µM
TGI [4]: > 100 µM
TGI [5]: > 100 µM
TGI [12]: > 100 µM
TGI [6]: > 100 µM
TGI [7]: > 100 µM
TGI [8]: > 100 µM
TGI [9]: > 100 µM

O=[N+]([O-])c1ccc(Cl)c(C2CC(c3cccc4ccccc34)=Nc3ccccc3S2)c1 (stereo not drawn)
TGI [1]: 28.1 µM
TGI [2]: 84.5 µM
TGI [3]: > 100 µM
TGI [11]: > 100 µM
TGI [4]: 88.9 µM
TGI [5]: > 66.1 µM
TGI [6]: 20.8 µM
TGI [7]: > 92.1 µM
TGI [8]: 68.9 µM
TGI [9]: 59 µM

O=c1cc(-c2c[nH]c3ccccc23)[nH]c2cc3c(cc12)OCO3
TGI [1]: > 100 µM
TGI [2]: > 100 µM
TGI [3]: > 100 µM
TGI [4]: > 100 µM
TGI [5]: > 100 µM
TGI [6]: > 100 µM
TGI [7]: > 100 µM
TGI [8]: > 100 µM
TGI [9]: > 100 µM

CS(=O)(=O)NNS(=O)(=O)c1ccccc1
TGI [1]: > 100 µM
TGI [2]: > 100 µM
TGI [3]: > 100 µM
TGI [11]: > 100 µM
TGI [4]: > 100 µM
TGI [5]: > 100 µM
TGI [6]: > 100 µM
TGI [7]: > 100 µM
TGI [8]: > 100 µM
TGI [9]: > 100 µM

CN(C)c1nnnn1-c1c(N)n(C)c(=O)n(C)c1=O
TGI [1]: > 100 µM
TGI [2]: > 100 µM
TGI [3]: > 100 µM
TGI [11]: > 100 µM
TGI [4]: > 100 µM
TGI [5]: > 100 µM
TGI [6]: > 100 µM
TGI [7]: > 100 µM
TGI [9]: > 100 µM

Cc1ccc(NC(=O)C2C(=O)N(c3ccc(C)c(C)c3)C(=O)/C2=N\NC(N)=O)cc1C (stereo not drawn)
TGI [1]: > 100 µM
TGI [2]: > 100 µM
TGI [3]: > 100 µM
TGI [11]: > 100 µM
TGI [4]: > 100 µM
TGI [5]: > 100 µM
TGI [6]: > 100 µM
TGI [7]: > 100 µM
TGI [9]: > 100 µM

NC(=O)c1ccccc1NC(=O)C(=O)Cc1nc2ccccc2[nH]c1=O
TGI [1]: > 100 µM
TGI [2]: > 100 µM
TGI [3]: > 100 µM
TGI [11]: > 100 µM
TGI [4]: > 100 µM
TGI [5]: > 100 µM
TGI [6]: > 100 µM
TGI [7]: > 100 µM
TGI [9]: > 100 µM

Cc1cc(-c2ccccc2)nc(Nc2nc3ccccc3o2)n1
TGI [1]: > 100 µM
TGI [2]: > 100 µM
TGI [3]: > 100 µM
TGI [11]: > 100 µM
TGI [4]: > 100 µM
TGI [5]: > 100 µM
TGI [6]: > 100 µM
TGI [7]: > 100 µM
TGI [8]: > 100 µM
TGI [9]: > 100 µM

Cc1noc2c1C(=O)CCC2
TGI [1]: > 100 µM
TGI [2]: > 100 µM
TGI [3]: > 100 µM
TGI [4]: > 100 µM
TGI [5]: > 100 µM
TGI [7]: > 100 µM
TGI [8]: > 100 µM
TGI [9]: > 100 µM

CCC/C=C1\CCC(CN(C)C)C1=O (stereo not drawn)
TGI [1]: 5.54 µM
TGI [2]: 31.2 µM
TGI [3]: 12.3 µM
TGI [11]: 15.3 µM
TGI [4]: 3.33 µM
TGI [5]: 26.7 µM
TGI [6]: 32.8 µM
TGI [7]: 19.8 µM
TGI [8]: 8.98 µM
TGI [9]: 28.2 µM

ON(Cc1ccccc1)C(=S)c1ccccc1
TGI [1]: > 100 µM
TGI [2]: 9.55 µM
TGI [10]: > 100 µM
TGI [3]: > 100 µM
TGI [11]: > 63.6 µM
TGI [4]: > 100 µM
TGI [5]: > 100 µM
TGI [12]: > 100 µM
TGI [6]: 47.1 µM
TGI [7]: > 100 µM
TGI [9]: 25.4 µM

Cc1cccc(C(C)C)c1N1C(=O)C(=O)C(c2nc3ccccc3o2)C(=O)C1=O
TGI [1]: > 100 µM
TGI [2]: 75.8 µM
TGI [3]: > 100 µM
TGI [11]: > 100 µM
TGI [4]: > 100 µM
TGI [5]: > 100 µM
TGI [6]: > 100 µM
TGI [7]: > 100 µM
TGI [8]: > 100 µM
TGI [9]: > 100 µM

O=C(CC1(O)C(=O)Nc2ccc(Br)cc21)c1ccc(Cl)cc1Cl (stereo not drawn)
TGI [1]: > 100 µM
TGI [2]: 46.8 µM
TGI [3]: > 100 µM
TGI [11]: > 100 µM
TGI [4]: > 100 µM
TGI [5]: 29.1 µM
TGI [6]: > 100 µM
TGI [7]: > 100 µM
TGI [8]: 50.7 µM
TGI [9]: 33.7 µM

CC(=O)NC1C(OCc2ccccc2)OC(CO)C(O)C1OC(C)C(=O)N[C@@H](C)C(=O)N[C@H](CCC(=O)OCCNc1c2ccccc2nc2cccc([N+](=O)[O-])c12)C(N)=O (stereo partly drawn)
TGI [1]: 0.0128 µM
TGI [2]: 0.00839 µM
TGI [3]: 0.00472 µM
TGI [11]: 0.00538 µM
TGI [4]: 0.00267 µM
TGI [6]: 0.00545 µM
TGI [7]: 0.0343 µM
TGI [8]: > 0.1 µM
TGI [9]: 0.00203 µM

COC(=O)C1=C(c2ccc(OC)c(OC)c2)OC(c2cc(OC)c(OC)c(OC)c2)C1 (stereo not drawn)
TGI [1]: > 100 µM
TGI [2]: > 100 µM
TGI [3]: > 100 µM
TGI [11]: > 100 µM
TGI [4]: > 100 µM
TGI [5]: > 100 µM
TGI [6]: > 100 µM
TGI [7]: > 100 µM

CCN(CC)c1ccc(N=Nc2ccc([N+](=O)[O-])cc2OC(=O)/C=C/c2ccccc2)c(OC(=O)/C=C/c2ccccc2)c1
TGI [1]: > 100 µM
TGI [2]: > 25.2 µM
TGI [3]: > 100 µM
TGI [11]: > 35.8 µM
TGI [4]: > 100 µM
TGI [5]: > 100 µM
TGI [6]: > 100 µM
TGI [7]: > 100 µM
TGI [8]: > 100 µM
TGI [9]: > 74.8 µM

O=C1NC(=O)C(=Nc2cccc3c(=O)[nH][nH]c(=O)c23)C(c2nc3ccccc3s2)C1=O (stereo not drawn)
TGI [1]: > 100 µM
TGI [2]: > 100 µM
TGI [3]: > 100 µM
TGI [11]: > 100 µM
TGI [4]: > 100 µM
TGI [5]: > 100 µM
TGI [6]: > 100 µM
TGI [7]: > 100 µM
TGI [9]: > 100 µM

C[N+](C)(C)CC1CCC/C1=N/O (stereo not drawn)
TGI [1]: > 100 µM
TGI [2]: 39 µM
TGI [3]: > 100 µM
TGI [11]: > 100 µM
TGI [4]: > 100 µM
TGI [5]: > 100 µM
TGI [6]: > 100 µM
TGI [7]: > 100 µM
TGI [8]: 54.2 µM
TGI [9]: > 100 µM

Cn1c(=O)c(NC(=O)C(Cl)(Cl)Cl)nc2ccccc21
TGI [1]: > 100 µM
TGI [2]: > 100 µM
TGI [3]: > 100 µM
TGI [11]: > 100 µM
TGI [4]: > 100 µM
TGI [5]: > 100 µM
TGI [6]: > 100 µM
TGI [7]: > 100 µM
TGI [9]: > 100 µM

CN=C(NC(=S)N(C)C)N(C)C
TGI [1]: > 100 µM
TGI [2]: > 100 µM
TGI [3]: > 100 µM
TGI [11]: > 100 µM
TGI [4]: > 100 µM
TGI [5]: > 100 µM
TGI [6]: > 100 µM
TGI [7]: > 100 µM
TGI [8]: > 100 µM
TGI [9]: > 100 µM
